Legend:
[1] = system: MOLM-13, MOLM-14 and MV-4-11 cell lines; assay: Cell cycle distribution by flow cytometry (PI); format: cell-based, human; details: MOLM-13, MOLM-14 and MV-4-11, 12 or 24 hours; Compound 1 0.01-0.1 μM, AC220 0.1 μM
[2] = system: PARP and Caspase 3; assay: Cell apoptosis, Western Blot of PARP and Caspase 3 cleavage
Excerpt: Western Blot was used to detect the effects of different concentrations of compounds on protein cleavage of the DNA repairase poly(ADP-ribose) polymerase (PARP) and Caspase (cysteinyl aspartate-specific proteinase) 3, wherein glyceraldehyde-3-phosphate dehydrogenase (GAPDH) was used as the internal standard protein.

[3] = system: MOLM-14 cells; assay: Nude mouse model harboring subcutaneous tumor; format: in vivo; details: 28 days
Procedure: The first day of administration was recorded as day 0, followed by continuous administration for 28 days (FIG. 4).

[4] = system: STAT5; assay: Signaling pathways of FLT3 in cells: STAT5 phosphorylation; format: cell-based, human; details: MV-4-11, MOLM-13 and MOLM-14 cells, 4 hours; Compound 1 0.001-0.3 μM, AC220 0.1 μM
[5] = system: BaF3-TEL-FLT3 [K663Q]; assay: Cell proliferation, Cell Titer-Glo, GI50; format: cell-based; details: Mus musculus, 72 hours
Procedure: (§1) Compounds of the invention were evaluated for their inhibitory effects on proliferation of cancer cells as well as the selectivity thereof by testing their effects on growth of cancer cells (Table 2).
(§2) Mouse BaF3-FLT3[ITD] (stably expressing FLT3[ITD] mutant activated kinase), mouse tel-BaF3-FLT3-D835Y (stably expressing FLT3[D835Y]mutant activated kinase), mouse tel-BaF3-BMX (stably expressing BMX kinase), mouse tel-FLT3-BaF3 (stably expressing FLT3 kinase), mouse BaF3-FLT3-ITD-D835Y (stably expressing FLT3[ITD+D835Y]mutant activated kinase), mouse BaF3-FLT3-ITD-F691L (stably expressing FLT3[ITD+F691L]mutant activated kinase), mouse tel-cKIT-BaF3 (stably expressing cKIT kinase), mouse BaF3-tel-cKit-N882K (stably expressing cKIT-N882K mutant activated kinase), mouse BaF3-tel-cKit-D816V (stably expressing cKIT-D816V mutant activated kinase), mouse BaF3-tel-cKit-T670I (stably expressing cKIT-T670I mutant activated kinase), mouse TPR-MET-BaF3 (stably expressing MET kinase), mouse tel-BaF3-EGFR (stably expressing EGFR kinase), mouse BaF3-FL-EGFR-L858R (stably expressing EGFR[L858R]mutant activated kinase), mouse tel-BaF3-BLK (stably expressing BLK kinase), mouse tel-JAK1-BaF3 (stably expressing JAK1 kinase) and the like were also used (see Table 2 for details). The above cell lines were all constructed by our laboratory according to the following method: the kinase region sequences of human FLT3/ITD, FLT3 D835Y, BMX, FLT3, FLT3[ITD+D835Y], FLT3[ITD+F691L], cKIT, cKIT [N882K], cKIT [D816V], cKIT [T670I], MET, EGFR, EGFR [L858R], BLK, JAK1, FLT3[K663Q], FLT3[D835V], FLT3[D835H], PDGFRa, PEGFRb, VEGFR2, JAK2, JAK3, ABL were amplified by PCR, and inserted into MSCV-Puro vectors with N-terminal TEL or TPR fragments (purchased from Clontech), respectively. The vectors were stably transfected into mouse BaF3 cells (purchased from ATCC) by means of retrovirus, and the growth factor IL-3 were removed, eventually obtaining cell lines that are transferred protein (FLT3/ITD, FLT3 D835Y, BMX, FLT3, FLT3[ITD D835Y], FLT3[ITD+F691L], cKIT, cKIT [N882K], cKIT [D816V], cKIT [T670I], MET, EGFR, EGFR [L858R], BLK, JAK1, FLT3[K663Q], FLT3[D835V], FLT3[D835H], PDGFRa, PEGFRb, VEGFR2, JAK2, JAK3, ABL)-dependent.
(§3) Then the number of viable cells was determined by quantification of ATP in living cells using Cell Titer-Glo® (Promega, the USA) Luminescent Cell Viability Assay kit and thereby GI50 was calculated.

[6] = system: BaF3-TEL-cKIT; assay: Cell proliferation, Cell Titer-Glo, GI50; format: cell-based; details: Mus musculus, 72 hours
Procedure: as §1, §2, §3

[7] = system: BaF3-TEL-BMX; assay: Cell proliferation, Cell Titer-Glo, GI50; format: cell-based; details: Mus musculus, 72 hours
Procedure: as §1, §2, §3

[8] = system: BaF3-TEL-FLT3 [D835V]; assay: Cell proliferation, Cell Titer-Glo, GI50; format: cell-based; details: Mus musculus, 72 hours
Procedure: as §1, §2, §3

[9] = system: BaF3-FLT3 [ITD + F691L]; assay: Cell proliferation, Cell Titer-Glo, GI50; format: cell-based; details: Mus musculus, Ba/F3 FLT3-ITD, 72 hours
Procedure: as §1, §2, §3

[10] = system: BaF3-TEL-cKit [T670I]; assay: Cell proliferation, Cell Titer-Glo, GI50; format: cell-based; details: Mus musculus, 72 hours
Procedure: as §1, §2, §3

[11] = system: BaF3-TEL-cKit [D816V]; assay: Cell proliferation, Cell Titer-Glo, GI50; format: cell-based; details: Mus musculus, 72 hours
Procedure: as §1, §2, §3

[12] = system: BaF3-TEL-FLT3 [D835Y]; assay: Cell proliferation, Cell Titer-Glo, GI50; format: cell-based; details: Mus musculus, 72 hours
Procedure: as §1, §2, §3

[13] = system: BaF3-FLT3 [ITD]; assay: Cell proliferation, Cell Titer-Glo, GI50; format: cell-based; details: Mus musculus, Ba/F3 FLT3-ITD, 72 hours
Procedure: as §1, §2, §3

[14] = system: BaF3-TEL-PDGFRa; assay: Cell proliferation, Cell Titer-Glo, GI50; format: cell-based; details: Mus musculus, 72 hours
Procedure: as §1, §2, §3

[15] = system: BaF3-TEL-PEGFRb; assay: Cell proliferation, Cell Titer-Glo, GI50; format: cell-based; details: Mus musculus, 72 hours
Procedure: as §1, §2, §3

[16] = system: BaF3-TEL-FLT3; assay: Cell proliferation, Cell Titer-Glo, GI50; format: cell-based; details: Mus musculus; BaF3-TEL-FLT3, 72 hours
Procedure: as §1, §2, §3

[17] = system: BaF3-TEL-FLT3 [D835H]; assay: Cell proliferation, Cell Titer-Glo, GI50; format: cell-based; details: Mus musculus, 72 hours
Procedure: as §1, §2, §3

[18] = system: BaF3-TEL-cKit [N882K]; assay: Cell proliferation, Cell Titer-Glo, GI50; format: cell-based; details: Mus musculus, 72 hours
Procedure: as §1, §2, §3

[19] = system: BaF3-FLT3 [ITD + D835Y]; assay: Cell proliferation, Cell Titer-Glo, GI50; format: cell-based; details: Mus musculus, Ba/F3 FLT3-ITD, 72 hours
Procedure: as §1, §2, §3

[20] = system: MOLM-14; assay: Cancer cell proliferation, Cell Titer-Glo, GI50; format: cell-based; details: Homo sapiens; MOLM-14, 72 hours
Procedure: as §1
(§4) In this example the following cells were selected: human acute myeloid leukemia cells MV-4-11 (expressing FLT3[ITD] mutant gene), human acute myeloid leukemia cells MOLM-13 (expressing FLT3[ITD] mutant gene and wild-type FLT3 gene), human acute myeloid leukemia cells MOLM-14 (expressing FLT3[ITD] mutant gene and wild-type FLT3 gene), human acute myeloid leukemia cells OCI-AML3 (expressing FLT3[A680V] mutant gene), human acute myeloid leukemia cells U937 (expressing wild-type FLT3 gene), and mouse pro-B cells BaF3, and the above cells were purchased from ATCC.
as §3

[21] = system: U937; assay: Cancer cell proliferation, Cell Titer-Glo, GI50; format: cell-based; details: Homo sapiens, U-937; U937, 72 hours
Procedure: as §1, §4, §3

[22] = system: MV-4-11; assay: Cancer cell proliferation, Cell Titer-Glo, GI50; format: cell-based; details: Homo sapiens, MV4-11; MV-4-11, 72 hours
Procedure: as §1, §4, §3

[23] = system: BaF3; assay: Cell proliferation, Cell Titer-Glo, GI50; format: cell-based; details: Mus musculus; BaF3, 72 hours
Procedure: as §1, §4, §3

Row | GI50 [5] | GI50 [6] | GI50 [7] | GI50 [8] | GI50 [9] | GI50 [10] | GI50 [11] | GI50 [12] | GI50 [13] | GI50 [14] | GI50 [15] | GI50 [16] | GI50 [17] | GI50 [18] | GI50 [19] | GI50 [20] | GI50 [21] | GI50 [22] | GI50 [23] | SMILES | further results
1 |  |  |  |  |  |  |  |  |  |  |  |  |  |  |  |  |  |  |  | CC(C)(C)c1cc(NC(=O)Nc2ccc(-n3nc(-c4ccc(OCCN5CCOCC5)cc4)c4c(N)ncnc43)cc2)no1 [Compound 1, 1-(4-(4-amino-3-(4-(2-morpholinoethoxy)phenyl)-1H-pyrazolo[3,4-d]pyrimidin-1-yl)phenyl)-3-(5-(tert-butyl)isoxazol-3-yl)urea] | cell cycle distribution [1]: arrested the cell cycle at phase G0-G1; cleavage of Caspase 3 ([2]; MOLM-13, 0.003 μM, 12 hours): significant cleavage; cleavage of the DNA repairase poly(ADP-ribose) polymerase (PARP) ([2]; MOLM-13, 0.003 μM, 12 hours): significant cleavage; cleavage of the DNA repairase poly(ADP-ribose) polymerase (PARP) ([2]; MV-4-11, 24 hours): even more significant; mice body weight ([3]; 3.75 mg/kg daily oral gavage): no significant decrease; mice body weight ([3]; 15 mg/kg daily oral gavage): did not decrease; mice body weight ([3]; […] daily oral gavage): did not decrease; phosphorylation of STAT5 [4]: significant inhibition
2 | 3600 nM | 31 nM | 5300 nM | 4 nM | 120 nM | 4 nM | 1800 nM | 9 nM | < 0.3 nM | 2 nM | 10 nM | 1 nM | < 0.3 nM | 10 nM | 59 nM | < 0.3 nM | 2300 nM | < 0.3 nM | ~10000 nM | CC(=O)N1CCN(Cc2ccc(-c3nn(-c4ccc(NC(=O)Nc5cc(C(C)(C)C)on5)cc4)c4ncnc(N)c34)cc2)CC1 [Compound 21, 1-(4-(3-(4-((4-acetylpiperazin-1-yl)methyl)phenyl)-4amino-1H-pyrazolo[3,4-d]pyrimidin-1-yl)phenyl)-3-(5-(tert-butyl)isoxazol-3-yl)urea] | 
3 | 3800 nM | 40 nM | 2000 nM | 17 nM | 39 nM | 13 nM | 2200 nM | 20 nM | < 0.3 nM | 2 nM | 12 nM | 1 nM | 4 nM | 15 nM | 100 nM | < 0.3 nM | 8500 nM | < 0.3 nM | 6500 nM | CC(C)(C)c1cc(NC(=O)Nc2ccc(-n3nc(-c4ccc(OCCN5CCN(S(C)(=O)=O)CC5)cc4)c4c(N)ncnc43)cc2)no1 [Compound 22, 1-(4-(4-amino-3-(4-(2-(4-(methanesulfonyl)piperazin-1-yl)ethoxy)phenyl)-1H-pyrazolo[3,4-d]pyrimidin-1-yl)phenyl)-3-(5-(tert-butyl)isoxazol-3-yl)urea] | 
